Values quoted from earlier work in PMC12175978, “First-in-Human Serum Stability Studies of [^177Lu]Lu-AMTG: A Step Toward Improved GRPR-Targeted Radiopharmaceutical Therapy” (Journal of Nuclear Medicine, 2025).
Read-outs that look alike come from different tables or passages of the source.

[^177Lu]Lu-DOTATATE
in vivo serum stability in humans (in words) (in vivo): very stable

[^177Lu]Lu-PSMA-617
in vivo serum stability in humans (in words) (human): very stable
